Experimental data from patent publication US8242282B2, “Histone deacetylase inhibitors” (Taipei Medical University, priority 2010, dated 2012).

Tests used:
[1] = target: histone deacetylase (HDAC); assay: HDAC inhibition assay (Fluor de Lys fluorescent assay, HeLa lysate); assay type: biochemical; details: mantissa in r5, exponent and unit in r6
Procedure: The histone deacetylase (HDAC) activity was measured in HeLa lysate suspensions using a Fluor de Lys™ fluorescent assay system (Biomol, Enzo Life Sciences; PA, USA) with some modification as described previously (Pflum et al., 2007). In brief, HeLa lysate (1.5 μl) were preincubated in the presence of test compound or vehicle (DMSO, 0.2% v/v) at 30° C. for 10 minutes, therefore Fluor de Lys™ substrate (125 μM) was added and incubated at 37° C. under shaking for 45 minutes. Finally, the developer reagent (95 μl, 1×) was immediately added to the same aliquot of the reaction mixture for another 10 minutes. The extent of deacetylated substrate formation was monitored by a microplate fluorescence reader (Thermo Varioskan Flash, Thermofisher; MA, USA) to determine the fluorescence intensity (excitation at 360 nm, emission at 460 nm). The results were expressed as the percent inhibition of the rate of deacetylated substrate formation on the reacting interval. […] See Bieliauskas et al., Bioorg. Med. Chem. Lett., 2007, 17: 2216-2219.

IMR90 cells = assay: In vitro wound healing activity (scrape wound, cell migration); assay type: cell-based; details: 24 hours, Compound 1 0.1, 0.5, 1 mM, Compound 3 0.05, 0.5, 1 μM
Procedure: The wound healing activities of Compounds 1 and 3 were in vitro assessed by the method provided in Valster et al., Methods, 2005, 37, 208-215 and Rodriguez et al., “Methods in Molecular Biology” in Cell Migration: Developmental Methods and Protocols, vol. 294, Ed by Guan et al. Humana. Press Inc.
IMR90 cells were seeded on a six-well culture dish and grown in MEM medium with 10% FBS to confluence in the presence of serum. The growth medium (MEM with 10% FBS) was then replaced with a serum-free medium (MEM without FBS). After starved for 24 hours, wounds were made by scraping using a P1000 pipette tip. […] The wounds were observed by a phase contrast microscopy using an inverted microscope. Images were taken at areas flanking the intersections of the wounds and the marker lines at regular intervals over a period of 24 hours. These images were analyzed through a digital imaging system using Image-Pro Plus® (Media Cybernetics, Silver Spring, Md.) to determine the position of the migrating cells at the wound edges. The cell migration distance was calculated by substracting the width of the wound at each interval from its initial width.

5-FU-induced mucositis = assay: In vivo anti-mucositis activity (5-FU, buccal pouch wound); design: species or system Syrian golden hamsters; details: hamster, subcutaneous once a day Day 0 to Day 5; Compound 1 36, 72, 144 mg/kg; Compound 3 0.5, 5.0, 50.0 mg/kg; dose-dependent
Procedure: Twenty young Syrian golden hamsters, 7 to 8 weeks old weighing 90 to 130 g, were numbered and randomly divided into five groups (4 hamsters each group).
Each hamster in the five groups was punched at the right buccal pouch mucosa with a skin puncher on Day 0 to give a 6 mm diameter wound. Four groups were intraperitoneally administered with 5-FU at 20 mg/kg twice at Day 0 and one group was used as a control without any treatment. […] Wounds were examined macroscopically and microscopically 0.5, 1, 2, 3, 4, 5, and 6 days after the punching. The hematological parameters, serum biochemistry, extents of inflammatory cell infiltration, sizes of hemorrhagic areas, and presence of ulcers and abscesses were recorded. After Day 6, all of the hamsters were anesthetized with isoflurane (2-chloro-2-difluoromethoxy-1,1,1-trifluoro-ethane) for macroscopic and histological analysis and Western blot analysis.

COX-2 = assay: In vitro COX-2 protein expression (Western blot); assay type: cell-based; details: IMR90 cells; 0.05-1.0 μM; dose-dependent
Procedure: To detect COX-2 protein expression, Western blot analysis was performed as follows. Briefly, Compound 3-treated IMR90 cells, stimulated by wounds (scraping using a P1000 pipette tip) and non-stimulated, were collected and lysed in 1× lysis buffer. Protein concentrations of these lysed cells were measured using Bio-Rad quantification assay (Bio-Rad Laboratory, CA). Protein extracts (20 μg) were subjected to electrophoresis on a 10% SDS-PAGE and transferred to PVDF membrane. The antibody recognizing COX-2 was obtained from Epitomics (Burlingame, Calif.). The antibody recognizing β-actin was from obtained Sigma (St. Louis, Mo.). All antibodies were rabbit polyclonal antibodies except for the β-actin antibody, which was a mouse monoclonal antibody. Secondary antibodies were anti-rabbit IgG and anti-mouse IgG (horseradish-peroxidase linked antibodies), respectively (Amersham Biosciences, Piscataway, N.J.). Primary antibodies were used at a 1:1,000 dilution and secondary antibodies were used at a 1:5,000 dilution in a solution containing 5% BSA in TBS-T. Immunoreactive proteins were detected using the enhanced chemiluminescence light (ECL) detecting kit (Millipore).

| Structure (SMILES) | IC50 [1] [nM] | melting point | wound healing (IMR90 cells) | 5-FU-induced mucositis in wound areas (5-FU-induced mucositis) | COX-2 protein expression (COX-2) |
| --- | --- | --- | --- | --- | --- |
| CC(C)(C)OC(=O)NC(Cc1ccc(O)cn1)C(=O)Nc1ccc(CCCC(=O)NO)cc1 (stereo not shown) [Compound 4, tert-butyl-1-(4-(4-(hydroxyamino)-4-oxobutyl)phenylamino)-3-(5-hydroxypyridin-2-yl)-1-oxopropan-2-ylcarbamate] | 4130 | 166 to 167 °C |  |  |  |
| O=C(CCCc1ccccc1)NO [Compound 1, N-hydroxy-4-phenylbutanamide] |  |  | promoted wound healing | reduced 5-FU-induced mucositis |  |
| NC(Cc1ccc(O)cn1)C(=O)Nc1ccc(CCCC(=O)NO)cc1 (stereo not shown) [Compound 6, 4-(4-(2-amino-3-(5-hydroxypyridin-2-yl)-propanamido)phenyl)-N-hydroxybutanamide] |  | 230 °C (dec.) |  |  |  |
| CC(C)(C)OC(=O)N[C@H](Cc1ccc(OCc2ccccc2)cn1)C(=O)Nc1ccc(CCCC(=O)NO)cc1 [Compound 3, (R)-tert-butyl 3-(5-(benzyloxy)pyridin-2-yl)-1-(4-(4-(hydroxylamino)-4-oxobutyl)phenylamino)-1-oxopropan-2-ylcarbamate] | 398 |  | promoted wound healing | reduced 5-FU-induced mucositis | inhibited COX-2 protein expression |
| CC(C)(C(=O)NO)C(O)Cc1ccccc1 (stereo not shown) [Compound 2, N,3-dihydroxy-2,2-dimethyl-4-phenylbutanamide] |  | 95 to 96 °C |  |  |  |
| CC(C)(C)OC(=O)NC(Cc1ccc(OCc2ccccc2)cn1)C(=O)NCc1ccc(C(=O)NO)cc1 (stereo not shown) [Compound 7, tert-butyl 3-(5-(benzyloxy)pyridin-2-yl)-1-(4-(hydroxycarbamoyl)benzylamino)-1-oxopropan-2-ylcarbamate] | 1320 | 106 to 108 °C |  |  |  |
| NC(Cc1ccc(OCc2ccccc2)cn1)C(=O)Nc1ccc(CCCC(=O)NO)cc1 (stereo not shown) [Compound 5, 4-(4-(2-amino-3-(5-(benzyloxy)pyridin-2-yl)propanamido)phenyl)-N-hydroxybutanamide] |  | > 300 °C |  |  |  |
